Earlier results as cited in US20050059087A1, “Antibodies directed to the deletion mutants of epidermal growth factor receptor and uses thereof” (priority 2003, published 2005).

How the values were obtained:
[1] = test system: L1210 cells; settings: treatment of L1210 cells in vivo; cited from earlier work
[2] = test system: P388, L1210, and LY5178 murine leukemic cell suspensions; settings: in vitro; cited from earlier work
[3] = test system: human acute lymphoblastic leukemia line CEM; settings: in vitro; cited from earlier work
[4] = test system: P388 lymphocytic leukemia system; settings: in vivo; cited from earlier work
[5] = vs methotrexate, daunorubicin, vincristine; cited from earlier work

COc1cc2cc(c1Cl)N(C)C(=O)C[C@H](OC(=O)[C@H](C)N(C)C(C)=O)[C@]1(C)O[C@H]1[C@H](C)[C@@H]1C[C@@](O)(NC(=O)O1)[C@H](OC)/C=C/C=C(\C)C2 [Maytansine]
Cells accumulating in mitosis [1]: 67% | Inhibitory doses [2]: 10^−3 to 10^−1 µg/µl | Inhibitory concentration [3]: ≥ 10^−7 mg/ml | Dosage range over which tumor growth was inhibited [4]: 50- to 100 fold | Cytotoxicity relative to conventional cancer chemotherapeutic agents [5]: 100 to 1000 fold
